Laboratory results: patent US7579469B2, “Glucocorticoid mimetics, methods of making them, pharmaceutical compositions, and uses thereof” (Boehringer Ingelheim Pharmaceuticals, Inc., priority 2003, dated 2009)

Target: T1, human glucocorticoid receptor (GR) complex (Homo sapiens, UniProt P04150)
T1 construct: made in house; host or cells: insect expression system (baculovirus lysate)
T1 sequence (P04150 1-777): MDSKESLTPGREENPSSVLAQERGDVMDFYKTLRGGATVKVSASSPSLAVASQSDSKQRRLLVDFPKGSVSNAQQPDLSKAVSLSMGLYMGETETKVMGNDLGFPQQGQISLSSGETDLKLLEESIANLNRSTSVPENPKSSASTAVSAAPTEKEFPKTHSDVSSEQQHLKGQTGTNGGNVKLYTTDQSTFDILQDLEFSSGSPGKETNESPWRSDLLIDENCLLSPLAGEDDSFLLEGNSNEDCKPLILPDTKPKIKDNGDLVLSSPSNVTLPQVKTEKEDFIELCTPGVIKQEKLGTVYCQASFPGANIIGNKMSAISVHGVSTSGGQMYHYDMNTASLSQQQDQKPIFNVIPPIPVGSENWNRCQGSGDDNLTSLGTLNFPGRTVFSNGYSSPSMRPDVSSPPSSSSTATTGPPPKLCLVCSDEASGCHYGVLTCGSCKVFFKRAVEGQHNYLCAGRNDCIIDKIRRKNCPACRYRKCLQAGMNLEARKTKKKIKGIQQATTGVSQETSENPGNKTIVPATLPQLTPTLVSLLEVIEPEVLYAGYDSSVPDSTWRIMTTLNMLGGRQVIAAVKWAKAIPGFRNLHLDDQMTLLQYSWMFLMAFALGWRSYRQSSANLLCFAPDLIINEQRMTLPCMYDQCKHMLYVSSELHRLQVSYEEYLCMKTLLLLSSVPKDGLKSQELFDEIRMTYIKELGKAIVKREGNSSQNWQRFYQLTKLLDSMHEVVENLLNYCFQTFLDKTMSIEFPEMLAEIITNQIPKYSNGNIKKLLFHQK
Experiment: Glucocorticoid receptor competitive binding assay (fluorescence polarization)
Conditions: competition with TAMRA-labeled dexamethasone
How it was run: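 Fluorescence polarization competition against TAMRA-labelled dexamethasone (50 μL of 15 nM added) for human GR complex from baculovirus insect-cell lysate, diluted 1:170, in TES/KCl/molybdate buffer, pH 7.4.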

| SMILES | activity in the GR binding assay |
| --- | --- |
| CC(C)(CC(O)(Cn1ccc(=O)c2cccc(F)c21)C(F)(F)F)c1cc(F)ccc1O (stereo not drawn) [8-Fluoro-1-[4-(5-fluoro-2-hydroxyphenyl)-2-hydroxy-4-methyl-2-trifluoromethylpentyl]-1H-quinolin-4-one] | potent activity |
| CC(=NO)c1cccc(C(C)(C)CC(O)(Cn2ccc(=O)c3ccccc32)C(F)(F)F)c1 (stereo not drawn) [1-(2-Hydroxy-4-{3-[1-(hydroxyimino)ethyl]phenyl}4-methyl-2-trifluoromethylpentyl)-1H-quinolin-4-one] | potent activity |
| CCC(C)(CC(O)(Cn1ccc(=O)c2ccccc21)C(F)(F)F)c1ccccc1 (stereo not drawn) [1-(2-Hydroxy-4-methyl-4-phenyl-2-trifluoromethylhexyl)-1H-quinolin-4-one] | potent activity |
| CC1(CC(O)(Cn2ccc(=O)c3ccccc32)C(F)(F)F)CCOc2ccc(F)cc21 (stereo not drawn) [1-[3,3,3-Trifluoro-2-(6-fluoro-4-methylchroman-4-ylmethyl)-2-hydroxypropyl]-1H-quinolin-4-one] | potent activity |
| Cc1ccc(F)cc1C(C)(C)CC(O)(Cn1ccc(=O)c2ncccc21)C(F)(F)F (stereo not drawn) [1-[4-(5-Fluoro-2-methylphenyl)-2-hydroxy-4-methyl-2-trifluoromethylpentyl]-1H-[1,5]naphthyridin-4-one] | potent activity |
| Cc1cn(CC(O)(CC(C)(C)c2cccc3c2OCC3)C(F)(F)F)c(CO)c(C)c1=O (stereo not drawn) [1-[4-(2,3-Dihydrobenzofuran-7-yl)-2-hydroxy-4-methyl-2-trifluoromethylpentyl]-2-hydroxymethyl-3,5-dimethyl-1H-pyridin-4-one] | potent activity |
| COc1ccc(F)cc1C(C)(C)CC(O)(Cn1ncc(=O)c2ccccc21)C(F)(F)F (stereo not drawn) [1-[4-(5-Fluoro-2-methoxyphenyl)-2-hydroxy-4-methyl-2-trifluoromethylpentyl]-1H-cinnolin-4-one] | potent activity |
| COc1ccc(F)cc1C(C)(C)CC(O)(CN1CCN(C)c2ccccc21)C(F)(F)F (stereo not drawn) [1,1,1-Trifluoro-4-(5-fluoro-2-methoxyphenyl)-4-methyl-2-(4-methyl-3,4-dihydro-2H-quinoxalin-1-ylmethyl)pentan-2-ol] | potent activity |
| COc1ccc(F)cc1C(C)(C)CC(O)(Cn1cc(CO)c(=O)c2ccccc21)C(F)(F)F (stereo not drawn) [1-[4-(5-Fluoro-2-methoxyphenyl)-2-hydroxy-4-methyl-2-trifluoromethylpentyl]-3-hydroxymethyl-1H-quinolin-4-one] | potent activity |
| Cc1cn(CC(O)(CC(C)(C)c2cc(F)ccc2O)C(F)(F)F)cc(C)c1=O (stereo not drawn) [1-[4-(5-Fluoro-2-hydroxyphenyl)-2-hydroxy-4-methyl-2-trifluoromethylpentyl]-3,5-dimethyl-1H-pyridin-4-one] | potent activity |
| CC(C)(CC(O)(Cn1ccc(=O)c2ccccc21)C(F)(F)F)c1cccc(-c2ccccc2)c1 (stereo not drawn) [1-(4-Biphenyl-3-yl-2-hydroxy-4-methyl-2-trifluoromethylpentyl)-H-quinolin-4-one] | potent activity |

More lines, now with the values ahead:

| activity in the GR binding assay | SMILES |
| --- | --- |
| potent activity | CC(C)(CC(O)(Cn1ccc(=O)c2ccccc21)C(F)(F)F)c1cccc(C2(C)OCCO2)c1 (stereo not drawn) [1-{2-Hydroxy-4-methyl-4-[3-(2-methyl-[1,3]dioxolan-2-yl)phenyl]-2-trifluoromethylpentyl}-1H-quinolin-4-one] |
| potent activity | CC(C)(CC(O)(Cn1ccc(=O)c2ccccc21)C(F)(F)F)c1cccc(C=O)c1 (stereo not drawn) [3-[4,4,4-Trifluoro-3-hydroxy-1,1-dimethyl-3-(4-oxo-4H-quinolin-1-ylmethyl)butyl]benzaldehyde] |
| potent activity | CC(C)(CC(O)(Cn1ccc(=O)c2ccccc21)C(F)(F)F)c1cc(Cl)cc2c1OCC2 (stereo not drawn) [1-[4-(5-Chloro-2,3-dihydrobenzofuran-7-yl)-2-hydroxy-4-methyl-2-trifluoromethylpentyl]-1H-quinolin-4-one] |
| potent activity | CC(C)(CC(O)(Cn1ccc(=O)c2ccccc21)C(F)(F)F)c1cccc(C(=O)C2CC2)c1 (stereo not drawn) |
| potent activity | CC(C)(CC(O)(Cn1ccc(=O)c2ccccc21)C(F)(F)F)c1cccc(Br)c1 (stereo not drawn) [1-[4-(3-Bromophenyl)-2-hydroxy-4-methyl-2-trifluoromethylpentyl]-1H-quinolin-4-one] |
| potent activity | CC(=O)c1ccc(O)c(C(C)(C)CC(O)(Cn2ccc(=O)c3ccccc32)C(F)(F)F)c1 (stereo not drawn) |
| potent activity | COc1ccc(F)cc1C(C)(C)CC(O)(Cn1ccc(=O)c2cc(Cl)ccc21)C(F)(F)F (stereo not drawn) [6-Chloro-1-[4-(5-fluoro-2-methoxyphenyl)-2-hydroxy-4-methyl-2-trifluoromethylpentyl]-1H-quinolin-4-one] |
| potent activity | CC(C)(CC(O)(Cn1ccc(=O)c2ccccc21)C(F)(F)F)c1ccc(F)cc1 (stereo not drawn) [1-[4-(4-Fluorophenyl)-2-hydroxy-4-methyl-2-trifluoromethylpentyl]-1H-quinolin-4-one] |
| potent activity | COc1ccc(Br)cc1C(C)(C)CC(O)(Cn1ccc(=O)c2ccccc21)C(F)(F)F (stereo not drawn) [1-[4-(5-Bromo-2-methoxyphenyl)-2-hydroxy-4-methyl-2-trifluoromethylpentyl]-1H-quinolin-4-one] |
| potent activity | CC(C)(CC(O)(Cn1ccc(=O)c2ncccc21)C(F)(F)F)c1cccc2c1OCC2 (stereo not drawn) |
| potent activity | CC(C)Oc1ccc(F)cc1C(C)(C)CC(O)(Cn1ccc(=O)c2ccccc21)C(F)(F)F (stereo not drawn) |
| potent activity | CC(C)(CC(O)(Cn1ccc(=O)c2ccccc21)C(F)(F)F)c1cc(-c2cncnc2)ccc1O (stereo not drawn) |
| potent activity | COc1ccc(F)cc1C(C)(C)CC(O)(Cn1ccc(=O)c2ccc(Cl)cc21)C(F)(F)F (stereo not drawn) [7-Chloro-1-[4-(5-fluoro-2-methoxyphenyl)-2-hydroxy-4-methyl-2-trifluoromethylpentyl]-1H-quinolin-4-one] |
| potent activity | CC(C)(CC(O)(Cn1ccc(=O)c2ccccc21)C(F)(F)F)c1cccc(C2OCCCO2)c1 (stereo not drawn) [1-[4-(3-[1,3]Dioxan-2-ylphenyl)-2-hydroxy-4-methyl-2-trifluoromethylpentyl]-1H-quinolin-4-one] |
| potent activity | CCOc1cccc(C(C)(C)CC(O)(Cn2ccc(=O)c3ccccc32)C(F)(F)F)c1 (stereo not drawn) |
| potent activity | Cc1cn(CC(O)(CC(C)(C)c2cc(S(C)(=O)=O)cc3c2OCC3)C(F)(F)F)c2ccccc2c1=O (stereo not drawn) [1-[2-Hydroxy-4-(5-methanesulfonyl-2,3-dihydrobenzofuran-7-yl)-4-methyl-2-trifluoromethylpentyl]-3-methyl-1H-quinolin-4-one] |
| potent activity | CC(=O)COc1ccc(F)cc1C(C)(C)CC(O)(Cn1ccc(=O)c2ccccc21)C(F)(F)F (stereo not drawn) [1-{4-[5-Fluoro-2-(2-oxopropoxy)phenyl]-2-hydroxy-4-methyl-2-trifluoromethylpentyl}-1H-quinolin-4-one] |
| potent activity | CC(C)(CC(O)(Cn1ccc(=O)c2ncccc21)C(F)(F)F)c1cc(S(C)(=O)=O)cc2c1OCC2 (stereo not drawn) [1-[2-Hydroxy-4-(5-methanesulfonyl-2,3-dihydrobenzofuran-7-yl)-4-methyl-2-trifluoromethylpentyl]-1H-[1,5]naphthyridin-4-one] |

Tested on: Osteocalcin Production from Osteoblast Cell Line MG-63
Experiment: Inhibition of osteocalcin production from osteoblast cell line MG-63
Format: cell-based, human
Conditions: MG-63 cells, Vitamin D 10 nM, 48 hours, osteocalcin ELISA
Protocol: Representative compounds of the invention have been tested and have shown activity as modulators of the glucocorticoid receptor function in one or more of the above assays. […] 7. Inhibition of Osteocalcin Production from Osteoblast Cell Line MG-63
Human osteosarcoma MG-63 cells (ATCC, Cat. No. CRL-1427) are plated on 96 well plates at 20,000 cells per well the day before use in 200 μL media of 99% D-MEM/F-12 (Gibco-Invitrogen, Cat. No. 11039-021), supplemented with 1% penicillin and streptomycin (Gibco-Invitrogen, Cat. No. 15140-122), 10 μg/mL Vitamin C (Sigma, Cat. No. A4544), and 1% charcoal filtered Fetal Bovine Serum (HyClone, Cat. No. SH30068.02). The next day, wells are replaced with fresh media. Cells are treated with Vitamin D (Sigma, Cat. No. D1530) to a final concentration of 10 nM, and with the test compounds in concentrations of 10^−6 M to 10^−9 M, in a total volume of 200 μL per well. Samples are done in duplicates. […] Positive control wells receive Vitamin D only, without compounds, and represent maximum (100%) amount of osteocalcin production. Plates are incubated at 37° C. incubator for 48 hours and supernatants are harvested at the end of incubation. Amounts of osteocalcin in the supernatants are determined by the Glype osteocalcin ELISA kit (Zymed, Cat. No. 99-0054) according to manufacture's protocol. Inhibition of osteocalcin by test compounds is expressed in percentage relative to positive controls. IC50 values of the test compounds are derived by non-lineal curve fitting.

| SMILES | inhibit the vitamin D stimulated production of osteocalcin |
| --- | --- |
| CC(C)(CC(O)(Cn1ccc(=O)c2ncccc21)C(F)(F)F)c1cc(F)ccc1O (stereo not drawn) | inhibit |
